The source of these data is patent US8871753B2, “Macrocyclic compounds and their use as kinase inhibitors” (Incyte Corporation, priority 2008, dated 2014).

Structures can show the parent of a compound that is named as a salt. Where two headings read alike, the source gives them in different places.

What all share (format): biochemical
Experiment [1] addresses T1, human JAK1 (a.a. 837-1142) (Homo sapiens, UniProt P23458).
T1 construct: human JAK1 (a.a. 837-1142); His tag (N); made in house; host or cells: insect cells (baculovirus)
Kind of experiment: In vitro JAK kinase assay (HTRF, phosphorylation of a biotinylated peptide), JAK1. Conditions: read-out: JAK1 IC50. The essentials: (§1)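 Kinase reactions ran at room temperature for 1 h with ATP matched per isoform (JAK1 90 μM, JAK2 30 μM, JAK3 3 μM). After an EDTA stop, the phosphorylated biotin-peptide was read by HTRF using Eu-Py20 and SA-APC after 40 min binding.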
Background: Time-resolved FRET reads energy transfer from a long-lived donor to a nearby acceptor.

Experiment [2] addresses TYK2 (Homo sapiens, UniProt P29597). Kind of experiment: TYK2 kinase inhibition (Table A1). Conditions: Table B1.
Experiment [3] addresses T2, Recombinant Human Anaplastic Lymphoma Kinase (Homo sapiens, UniProt Q9UM73).
T2 construct: purchased Invitrogen, Carlsbad, Calif
Kind of experiment: ALK HTRF kinase assay. From the text:
Materials: Recombinant Human Anaplastic Lymphoma Kinase was purchased from Invitrogen, Carlsbad, Calif. Peptide substrate (Biotin-[…]-amide) was custom synthesized at EZBiolab, Westfield, Ind. Streptavidin conjugated SureLight-Allophycocyania and LANCE Eu-W1024 labeled anti-phosphotyrosine antibody were from Perkin-Elmer, Boston, Mass. Microplates were from Corning Inc., Acton, Mass. All other reagents were from Sigma, St. Louis, Mo.
Plates were read in Fusion α-FP instrument (Perkin-Elmer). […] Signal=Bottom+(Top−Bottom)/(1+10^((Log(IC50)−Log [I])*Hill Slope) Bottom and Top refer to the post and pre-transition baselines, respectively.

For experiment [4], the target named is T3, human JAK2 (a.a. 828-1132) (Homo sapiens, UniProt O60674).
T3 construct: JAK2 (a.a. 828-1132); His tag (N); made in house; host or cells: insect cells (baculovirus)
T3 sequence (O60674 828-1132): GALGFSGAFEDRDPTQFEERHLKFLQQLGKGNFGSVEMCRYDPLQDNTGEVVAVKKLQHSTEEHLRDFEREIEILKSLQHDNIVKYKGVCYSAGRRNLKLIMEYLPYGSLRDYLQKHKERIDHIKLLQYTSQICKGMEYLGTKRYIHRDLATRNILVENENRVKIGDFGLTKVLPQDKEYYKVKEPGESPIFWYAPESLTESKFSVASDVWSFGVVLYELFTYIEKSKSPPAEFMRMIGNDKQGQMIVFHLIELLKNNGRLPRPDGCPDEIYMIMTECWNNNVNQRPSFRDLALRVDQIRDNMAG
Kind of experiment: In vitro JAK kinase assay (HTRF, phosphorylation of a biotinylated peptide), JAK2. The method, boiled down: as §1

The target of experiment [5] is T4, human JAK3 (a.a. 781-1124) (Homo sapiens, UniProt P52333).
T4 construct: JAK3 (a.a. 781-1124); His tag (N); made in house; host or cells: insect cells (baculovirus)
T4 sequence (P52333 781-1124): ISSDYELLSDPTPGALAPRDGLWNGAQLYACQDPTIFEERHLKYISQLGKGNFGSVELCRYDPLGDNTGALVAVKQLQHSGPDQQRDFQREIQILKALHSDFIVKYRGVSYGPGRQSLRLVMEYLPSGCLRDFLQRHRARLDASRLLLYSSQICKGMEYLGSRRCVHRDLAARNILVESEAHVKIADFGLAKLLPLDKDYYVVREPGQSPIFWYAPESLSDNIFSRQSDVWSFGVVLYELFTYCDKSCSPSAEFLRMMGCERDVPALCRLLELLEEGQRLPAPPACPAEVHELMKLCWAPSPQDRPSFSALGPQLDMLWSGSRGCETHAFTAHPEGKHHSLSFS
Kind of experiment: In vitro JAK kinase assay (HTRF, phosphorylation of a biotinylated peptide), JAK3. The method, boiled down: as §1

The mark [6] stands for this setting: compound at a concentration of 500 nM or 1 mM (not specified), cells shown as percentage.
The mark [7] stands for this setting: Table B1, cells without percent sign.
Setting [8] is: method AA1 (90 μM ATP) or AA2 (1000 μM ATP), not stated per value.
Where [9] appears, read: method AA1 (3 μM ATP) or AA2 (1000 μM ATP), not stated per value.
The mark [10] stands for this setting: compound at 500 nM or 1 mM, 90 μM ATP.
The mark [11] stands for this setting: method AA1 (30 μM ATP) or AA2 (1000 μM ATP), not stated per value.

T2 sequence (Q9UM73 19-1620): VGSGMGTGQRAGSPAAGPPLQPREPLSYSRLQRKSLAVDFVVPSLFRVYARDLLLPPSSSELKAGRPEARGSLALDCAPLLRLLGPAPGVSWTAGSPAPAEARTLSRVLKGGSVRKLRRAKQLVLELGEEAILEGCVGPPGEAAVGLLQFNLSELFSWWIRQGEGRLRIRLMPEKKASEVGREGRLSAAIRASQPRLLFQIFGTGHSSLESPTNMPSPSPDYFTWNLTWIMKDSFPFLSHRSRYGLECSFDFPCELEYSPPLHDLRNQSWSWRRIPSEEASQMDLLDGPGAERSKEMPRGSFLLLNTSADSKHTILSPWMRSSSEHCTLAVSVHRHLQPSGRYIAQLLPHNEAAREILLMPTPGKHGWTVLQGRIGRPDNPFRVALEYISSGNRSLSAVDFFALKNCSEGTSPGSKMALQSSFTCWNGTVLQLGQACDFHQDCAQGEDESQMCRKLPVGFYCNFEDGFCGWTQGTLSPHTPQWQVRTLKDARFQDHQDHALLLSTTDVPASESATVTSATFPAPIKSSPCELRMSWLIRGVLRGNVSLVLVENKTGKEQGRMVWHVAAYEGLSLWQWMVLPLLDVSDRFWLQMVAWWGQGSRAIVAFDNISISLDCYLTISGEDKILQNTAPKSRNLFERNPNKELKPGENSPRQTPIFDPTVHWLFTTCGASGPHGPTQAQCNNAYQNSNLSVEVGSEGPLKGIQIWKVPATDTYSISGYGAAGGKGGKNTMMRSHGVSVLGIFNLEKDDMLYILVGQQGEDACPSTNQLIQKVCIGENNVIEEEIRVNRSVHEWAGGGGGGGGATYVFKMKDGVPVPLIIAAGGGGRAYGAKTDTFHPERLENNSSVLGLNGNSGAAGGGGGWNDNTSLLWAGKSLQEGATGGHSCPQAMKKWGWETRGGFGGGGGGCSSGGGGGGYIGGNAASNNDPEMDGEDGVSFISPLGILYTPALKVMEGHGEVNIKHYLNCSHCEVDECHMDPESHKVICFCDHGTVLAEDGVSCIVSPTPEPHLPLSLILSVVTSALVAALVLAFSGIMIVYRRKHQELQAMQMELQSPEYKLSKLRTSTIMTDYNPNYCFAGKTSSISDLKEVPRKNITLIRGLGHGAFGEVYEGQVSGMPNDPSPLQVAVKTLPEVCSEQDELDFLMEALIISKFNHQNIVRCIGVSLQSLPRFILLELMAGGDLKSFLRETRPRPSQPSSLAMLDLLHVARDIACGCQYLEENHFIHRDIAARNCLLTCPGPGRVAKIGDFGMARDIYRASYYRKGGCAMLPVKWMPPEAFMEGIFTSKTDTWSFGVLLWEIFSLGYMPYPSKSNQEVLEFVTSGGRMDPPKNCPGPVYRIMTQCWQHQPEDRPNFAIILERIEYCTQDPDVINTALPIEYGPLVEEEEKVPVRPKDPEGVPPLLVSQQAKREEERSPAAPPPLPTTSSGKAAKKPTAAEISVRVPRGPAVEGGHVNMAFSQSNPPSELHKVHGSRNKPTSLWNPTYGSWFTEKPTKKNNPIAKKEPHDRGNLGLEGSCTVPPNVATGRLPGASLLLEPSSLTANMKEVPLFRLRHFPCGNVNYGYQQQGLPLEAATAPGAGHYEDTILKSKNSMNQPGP
T1 sequence (P23458 849-1154): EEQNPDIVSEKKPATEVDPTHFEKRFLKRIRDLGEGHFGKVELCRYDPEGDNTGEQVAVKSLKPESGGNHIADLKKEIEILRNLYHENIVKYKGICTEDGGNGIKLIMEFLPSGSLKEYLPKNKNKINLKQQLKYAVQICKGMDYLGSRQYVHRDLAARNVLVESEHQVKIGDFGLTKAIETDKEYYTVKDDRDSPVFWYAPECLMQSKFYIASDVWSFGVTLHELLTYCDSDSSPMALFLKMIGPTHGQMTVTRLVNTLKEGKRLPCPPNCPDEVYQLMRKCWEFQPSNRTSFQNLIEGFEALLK
Sequence of TYK2 (P29597 whole entry): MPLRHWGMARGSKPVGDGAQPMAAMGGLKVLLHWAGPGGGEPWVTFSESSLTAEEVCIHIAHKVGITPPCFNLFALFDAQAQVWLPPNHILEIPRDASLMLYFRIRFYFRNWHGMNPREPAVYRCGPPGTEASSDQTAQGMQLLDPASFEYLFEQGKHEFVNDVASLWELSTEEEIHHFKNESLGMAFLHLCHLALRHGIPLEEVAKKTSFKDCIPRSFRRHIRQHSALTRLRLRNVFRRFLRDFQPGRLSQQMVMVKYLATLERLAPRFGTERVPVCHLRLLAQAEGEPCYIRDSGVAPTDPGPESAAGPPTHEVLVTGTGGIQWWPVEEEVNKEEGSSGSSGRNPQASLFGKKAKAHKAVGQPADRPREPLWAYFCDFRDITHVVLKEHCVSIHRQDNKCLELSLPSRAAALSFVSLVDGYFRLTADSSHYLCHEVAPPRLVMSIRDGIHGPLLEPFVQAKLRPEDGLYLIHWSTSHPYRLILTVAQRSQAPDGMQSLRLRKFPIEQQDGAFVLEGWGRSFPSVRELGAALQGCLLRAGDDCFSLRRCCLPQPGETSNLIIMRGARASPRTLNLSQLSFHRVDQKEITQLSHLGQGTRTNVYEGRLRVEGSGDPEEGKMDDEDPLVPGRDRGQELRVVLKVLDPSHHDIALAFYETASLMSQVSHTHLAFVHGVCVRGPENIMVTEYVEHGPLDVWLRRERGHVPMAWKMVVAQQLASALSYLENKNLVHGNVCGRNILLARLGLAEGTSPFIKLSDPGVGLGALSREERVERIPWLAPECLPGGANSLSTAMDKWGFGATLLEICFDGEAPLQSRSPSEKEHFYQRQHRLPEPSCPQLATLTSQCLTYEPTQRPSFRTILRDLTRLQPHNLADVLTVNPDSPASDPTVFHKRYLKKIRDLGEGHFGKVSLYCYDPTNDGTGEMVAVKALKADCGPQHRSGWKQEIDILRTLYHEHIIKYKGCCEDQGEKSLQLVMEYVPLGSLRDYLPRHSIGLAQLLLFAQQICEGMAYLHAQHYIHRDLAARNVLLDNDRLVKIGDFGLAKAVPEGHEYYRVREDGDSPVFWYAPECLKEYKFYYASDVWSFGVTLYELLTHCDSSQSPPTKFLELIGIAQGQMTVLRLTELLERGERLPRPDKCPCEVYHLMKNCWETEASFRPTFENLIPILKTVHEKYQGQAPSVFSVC

On to `Cc1oncc1C(=O)N1CC[C@H](NC(=O)Nc2ccc3cc2CCc2cncc(c2)Nc2ncc(Cl)c(n2)N3)C1` [Example B266, N-[6-Chloro-2,4,8,18,22-pentaazatetracyclo[14.3.1.1(3,7).1(9,13)]docosa-1(20),3(22),4,6,9(21),10,12,16,18-nonaen-12-yl]-N′-{(3S)-1-[(5-methylisoxazol-4-yl)carbonyl]pyrrolidin-3-yl}urea bis(trifluoroacetate)], for which the results for the IC50 in experiment [1] (Table B1), in experiment [2] and in experiment [4] (Table B1) were 17 nM, 25 nM and 601 nM, respectively. Besides, the “ALK % of inhibition at a concentration of 500 nM or 1 mM” value (“ALK % of inhibition” for short) in experiment [3] (setting [6]) turned out to be 22%.
Regarding `Cn1ccc(C(=O)Nc2cc3cc(c2)Nc2nc(ncc2Cl)Nc2cccc(c2)CC3)n1` [Example B207, N-[6-Chloro-2,4,8,22-tetraazatetracyclo[14.3.1.1(3,7).1(9,13)]docosa-1(20),3(22),4,6,9(21),10,12,16,18-nonaen-11-yl]-1-methyl-1H-pyrazole-3-carboxamide trifluoroacetate], the IC50 is 176 nM in experiment [1] (Table B1), 700 nM in experiment [2], over 10 µM in experiment [3] (setting [7]) and 125 nM in experiment [4] (Table B1).
For `Cc1ccc(C#N)c(N2CCC(CC(=O)Nc3ccc4cc3CCc3cncc(c3)Nc3ncc(Cl)c(n3)N4)CC2)n1` [Example A238, N-[6-Chloro-2,4,8,18,22-pentaazatetracyclo[14.3.1.1(3,7).1(9,13)]docosa-1(20),3(22),4,6,9(21),10,12,16,18-nonaen-12-yl]-2-[1-(3-cyano-6-methylpyridin-2-yl)piperidin-4-yl]acetamide tris(trifluoroacetate)], the IC50 is 18 nM in experiment [1] (setting [8]), over 400 nM in experiment [5] (setting [9]) and 244 nM in experiment [4] (setting [11]). Also, the “ALK % of inhibition” value in experiment [3] (setting [10]) is 15%.
Turning to `O=S(=O)(Nc1ccc2cc1CCc1cccc(c1)Nc1ncc(Cl)c(n1)N2)c1ccccc1C(F)(F)F` [Example B164, N-[6-Chloro-2,4,8,22-tetraazatetracyclo[14.3.1.1(3,7).1(9,13)]docosa-1(20), 3(22),4,6,9(21),10,12,16,18-nonaen-12-yl]-2-(trifluoromethyl)benzenesulfonamide trifluoroacetate], the IC50 in experiment [1] (Table B1) worked out at 8 nM; in experiment [2], 8.1 nM; in experiment [4] (Table B1) it was 8.4 nM. In addition, the “ALK % of inhibition” value in experiment [3] (setting [6]) was 4.6%.
`Clc1nccc(N2CCN(Cc3cc4cc(c3)Nc3nc(ncc3Cl)Nc3cccc(c3)CC4)CC2)n1` [Example B218, 6-Chloro-11-{[4-(2-chloropyrimidin-4-yl)piperazin-1-yl]methyl}-2,4,8,22-tetraazatetracyclo[14.3.1.1(3,7).1(9,13)]docosa-1(20),3(22),4,6,9(21),10,12,16,18-nonaene tris(trifluoroacetate)]: the IC50 in experiment [1] (Table B1) is 164 nM; in experiment [2], 900 nM; in experiment [3] (setting [7]), over 10 µM; in experiment [4] (Table B1), 25 nM.
As to `Cc1noc(C)c1NC(=O)N1CCC(CC(=O)Nc2ccc3cc2CCc2cncc(c2)Nc2ncc(Cl)c(n2)N3)CC1` [Example A19, bis(trifluoroacetate)], the IC50 was 17 nM in experiment [1] (setting [8]), over 100 nM in experiment [5] (setting [9]) and 54 nM in experiment [4] (setting [11]). For the same molecule, the “ALK % of inhibition” value in experiment [3] (compound at 500 nM or 1 mM, 90 μM ATP, bis(trifluoroacetate)) is on record as 17%.
As for `CC(C)(C)OC(=O)N1CCN(C(=O)COc2ccc3cc2CCc2cccc(c2)Nc2ncc(Cl)c(n2)N3)CC1` [Example A17, tert-Butyl 4-({[6-chloro-2,4,8,22-tetraazatetracyclo[14.3.1.1(3,7).1(9,13)]docosa-1(20),3(22),4,6,9(21),10,12,16,18-nonaen-12-yl]oxy}acetyl)piperazine-1-carboxylate trifluoroacetate], the IC50 in experiment [1] (setting [8]) came out at 85 nM; in experiment [5] (setting [9]), 217 nM; in experiment [4] (setting [11]), 87 nM. Besides, the “ALK % of inhibition” value in experiment [3] (setting [10]) is recorded as 7%.
On to `CC(=O)NCCNC(=O)Nc1ccc2cc1CCc1cccc(c1)Nc1ncc(Cl)c(n1)N2` [Example B186, N-{2-[({[6-Chloro-2,4,8,22-tetraazatetracyclo[14.3.1.1(3,7).1(9,13)]docosa-1(20),3(22),4,6,9(21),10,12,16,18-nonaen-12-yl]amino}carbonyl)amino]ethyl}acetamide trifluoroacetate], for which the IC50 in experiment [1] (Table B1) came to 4 nM; in experiment [2] it was 9.6 nM; in experiment [4] (Table B1), 8.2 nM. Further, in experiment [3] (setting [6]), the “ALK % of inhibition” value turned out to be 21%.
Consider `Cc1ccoc1C(=O)N1CCC(CC(=O)Nc2ccc3cc2CCc2cncc(c2)Nc2ncc(Cl)c(n2)N3)CC1` [Example A161, N-[6-Chloro-2,4,8,18,22-pentaazatetracyclo[14.3.1.1(3,7).1(9,13)]docosa-1(20),3(22),4,6,9(21),10,12,16,18-nonaen-12-yl]-2-[1-(3-methyl-2-furoyl)piperidin-4-yl]acetamide bis(trifluoroacetate)], for which the IC50 turned out to be 15 nM in experiment [1] (setting [8]) and 300 nM in experiment [4] (setting [11]). Moreover, the “ALK % of inhibition” value in experiment [3] (setting [10]) was 27%.
For the molecule `O=S1(=O)Cc2cccc(c2)Nc2nc(ncc2Cl)Nc2cccc(c2)N1` [Example C8, 6-Chloro-15-thia-2,4,8,16,23-pentaazatetracyclo[15.3.1.1(3,7).1(9,13)]tricosa-1(21),3(23),4,6,9(22),10,12,17,19-nonaene 15,15-dioxide trifluoroacetate], the IC50 in experiment [5] was 242 nM; in experiment [3] it was over 1 µM; in experiment [4] it was 66 nM.
With `Nc1nonc1C(=O)N1CCC(CC(=O)Nc2ccc3cc2CCc2cncc(c2)Nc2ncc(Cl)c(n2)N3)CC1` [Example A167, 2-{1-[(4-Amino-1,2,5-oxadiazol-3-yl)carbonyl]piperidin-4-yl}-N-[6-chloro-2,4,8,18,22-pentaazatetracyclo[14.3.1.1(3,7).1(9,13)]docosa-1(20),3(22),4,6,9(21),10,12,16,18-nonaen-12-yl]acetamide tris(trifluoroacetate)], the half-maximal inhibitory concentration (IC50) in experiment [1] (setting [8]) was found to be 0.6 nM; in experiment [4] (setting [11]), 59 nM. For the same molecule, the “ALK % of inhibition” value in experiment [3] (setting [10]) turned out to be 33%.
`CC(C)(C)OC(=O)N1CCC(NC(=O)Nc2ccc3cc2CCc2cccc(c2)Nc2ncc(Cl)c(n2)N3)CC1` [Example B180, tert-Butyl 4-[({[6-chloro-2,4,8,22-tetraazatetracyclo[14.3.1.1(3,7).1(9,13)]docosa-1(20),3(22),4,6,9(21),10,12,16,18-nonaen-12-yl]amino}carbonyl)amino]piperidine-1-carboxylate]: the IC50 in experiment [1] (Table B1) was found to be 91 nM; in experiment [2], 450 nM; in experiment [4] (Table B1), 97 nM. Also, in experiment [3] (setting [6]), the “ALK % of inhibition” value came out at 3.5%.
As to `Cn1ccnc1C(=O)N1CCC(CC(=O)Nc2ccc3cc2CCc2cncc(c2)Nc2ncc(Cl)c(n2)N3)CC1` [Example A164, N-[6-Chloro-2,4,8,18,22-pentaazatetracyclo[14.3.1.1(3,7).1(9,13)]docosa-1(20),3(22),4,6,9(21),10,12,16,18-nonaen-12-yl]-2-{1-[(1-methyl-1H-imidazol-2-yl)carbonyl]piperidin-4-yl}acetamide bis(trifluoroacetate)], the IC50 came to 5.3 nM in experiment [1] (setting [8]) and 175 nM in experiment [4] (setting [11]). Moreover, in experiment [3] (setting [10]), the “ALK % of inhibition” value is given as 14%.
In the same order, the values of `Cc1ccc(C(=O)N2CCC(CC(=O)Nc3ccc4cc3CCc3cncc(c3)Nc3ncc(Cl)c(n3)N4)CC2)o1` [Example A162, N-[6-Chloro-2,4,8,18,22-pentaazatetracyclo[14.3.1.1(3,7).1(9,13)]docosa-1(20),3(22),4,6,9(21),10,12,16,18-nonaen-12-yl]-2-[1-(5-methyl-2-furoyl)piperidin-4-yl]acetamide bis(trifluoroacetate)] are 8.2 nM, 289 nM and 33%.
Regarding `Clc1cnc2nc1Nc1cc(cc(CN3CCN(Cc4ccc(Oc5ncccn5)cc4)CC3)c1)CCc1cccc(c1)N2` [Example B193, 6-Chloro-11-({4-[4-(pyrimidin-2-yloxy)benzyl]piperazin-1-yl}methyl)-2,4,8,22-tetraazatetracyclo[14.3.1.1(3,7).1(9,13)]docosa-1(20),3(22),4,6,9(21),10,12,16,18-nonaene tris(trifluoroacetate)], the IC50 was 55 nM in experiment [1] (Table B1), 950 nM in experiment [2], over 1 µM in experiment [3] (setting [7]) and 47 nM in experiment [4] (Table B1).

The term IC50 denotes the concentration that inhibits the measured activity by half.
